The results in this text go back to patent US7229826B2, “Process for ex vivo formation of mammalian bone and uses thereof” (The Regents of the University of Michigan, priority 1999, dated 2007).

“Also recorded” adds a separate entry of the source.

Holding throughout (format): cell-based
The test system of assay [1] is human osteogenic cells (MG63, HBPC, primary osteoblasts). As to the kind of experiment: Inhibition of cell condensation (bone cell spheroid and microspicule formation). Particulars: EGTA 0.5 mM; puromycin 5 μM; spheroid-forming conditions with TGF-β1. Here is the method: Inhibition of Cell Condensation. Cells were cultured in serum-free media under conditions that establish bone cell spheroids (as described above) in the presence of neutralizing antibodies to α2, α3, and/or β1 integrins, at 10 μg/ml. Isotype-specific inappropriate antibodies served as negative controls. Antibodies were added every second day over a seven-day culture period. EGTA (0.5 mM) was also used inhibition of cell aggregation, as was puromycin (5 μM).

Assay [2] has the same test system. The assay is described as follows: Western analysis of bone protein expression in spheroids. The conditions noted are these: each osteogenic cell type; versus serum-free cells in the absence of TGF-β1. Here is the method: Western Analysis. The procedure used was essentially that of Towbin (1979). Samples were run on a 10% SDS-PAGE. The electrophoretically resolved proteins were transferred to nitrocellulose (Schleicher & Schuell; Keene, N.H.) and the nonspecific binding sites blocked using 5% Skim milk in TBST (10 mM Tris, 0.15M NaCl, 0.05% Tween 20, pH 7.5). The nitrocellulose membrane was incubated with primary antibodies: anti-Osteonectin (ON), anti-alkaline phosphatase, (both generous gifts of Dr. Kenneth Mann, University of Vermont) or anti-Type I collagen (Collaborative); each at 10 μg/ml in TBST) for 1 hour at room temperature, washed with TBST and treated with the secondary antibody (anti-mouse IgG-HRP conjugated; Amersham) at a 1:1000 dilution in the same buffer. The HRP/anitbody-labeled proteins were visualized by enhanced chemilluminescence (Pierce).

For assay [3] the test system is unchanged. As to the kind of experiment: TGF-β1-induced bone cell spheroid formation in serum-free culture. Particulars: 200 pM TGF-β1, serum-free, immediately following trypsinization. As for the experimental part:
Culture of Osteogenic Cells and Cell Lines. Osteogenic cell lines such as human osteosarcoma cells (MG63) were cultured in RPMI 1640 (Gibco, Grand Island. N.Y.) containing 2 mM L-Glutamine, sodium pyruvate and 10% Fetal Calf Serun (FCS) (Hyclone Labs Inc., Logan, Utah). For bone cell spheroid formation, cells were grown to confluency, trypsinized, washed two times in RPMI, and immediately cultured in serum-free media containing 1% ITS+ (Collaborative Research Inc.) and 200 pM TGF-β1 (Collaborative). Unless otherwise noted, cells are plated at a density of about 10^3 to 10^6 cells/cm^2 in tissue culture dishes. Control cells were allowed to adhere to plastic for 3–4 hours in serum containing medium following trypsinization. This adherent cell layer was then washed twice with serum-free medium and cultured as above with or without TGF-β1.
Bone Cell-Spheroid Formation. In order to induce three-dimensional cell development (i.e., bone cell spheroids), cells were trypsinized as routinely performed for passage, the trypsin inactivated by serum addition, the cells washed three times, and immediately cultures in RPMI/ITS^+ (see above) containing 200 pM TGF-β1, Control cells were allowed to adhere to plastic for 3–4 hours in serum containing medium following trypsinization. This adherent cell layer was then washed twice with serum-free medium and cultured as above with or without TGF-β1.

Assay [4] has as its system primary osteoblasts isolated from human bone. The assay is described as follows: Collagen synthesis by 3H-proline incorporation, delayed reduction electrophoresis. Particulars: densitometry. Here is the method: Collagen Synthesis. At the times indicated, bone cell-spheroids were washed with prolene-free DMEM containing 1% ITS, and incubated for 12 hours in the presence of ITS^+ and 100 μCi/ml (^3H) Proline (Amersham). Cells and medium were harvested, and cell lysates were made. Protein content was estimated by the BCA method (Smith, 1985), using a kit from Pierce (Rockford, Ill.). The cell lysates were lyophilized and extracted overnight at 4° C. with 0.5M acetic acid containing 100 μg/ml pepsin (Sigma Chemical Co., St. Louis, Mo.). Samples were dried, dissolved in non-reducing SDS-gel buffer and analyzed on a 5% SDS-gel. The αl(1) and αl(111) components were resolved by delayed reduction electrophoresis (Sykes, 1976). The gels were treated with Amplify (Amersham, England), and the radiolabeled collagen visualized by autoradiography. The percentage of Type I collagen was determined using the following formula (Franceschi, 1988).

The test system of assay [5] is murine LTBMC (unfractionated bone marrow). As to the kind of experiment: Murine long-term bone marrow culture (LTBMC) osteogenesis, von Kossa / Masson positive foci and microspicules. From the text:
The inventors therefore established murine LTBMC and probed their capacity to express markers of osteogenesis. […] Additionally, they have developed a smaller culture volume system (dropping from 100 -mm tissue culture dishes to 35 mm ones) to allow better utilization of human osteoblasts. Using this modification on murine cells (which respond less robustly to TGF-β as a solitary cytokine), the inventors examined the role of IGF in modulating this process.
Endothelial cells are important sources of cytokines for both hematopoietic and osteogenesis cells. An important regulator of endothelial cells, VEGF, is known to affect both endothelial cells, and bone cell development (although it is not clear if the latter is a direct effect).

Turning to `O=C(O)CN(CCOCCOCCN(CC(=O)O)CC(=O)O)CC(=O)O` [EGTA], in assay [1], the “spheroid formation (effect in words)” value is “completely inhibited”.
Turning to `COc1ccc(C[C@H](N)C(=O)N[C@H]2[C@@H](O)[C@H](n3cnc4c(N(C)C)ncnc43)O[C@@H]2CO)cc1` [puromycin], the “spheroid formation (effect in words)” value in assay [1] is “completely blocked; also recorded: completely inhibited”.
As to “TGF-β1: multifunctional cytokine of the TGF-β family, osteogenic growth factor used at 200 pM (human) or 25 pM (murine)”, in assay [2], the “expression of osteonectin and alkaline phosphatase” value is recorded as “markedly increases”. Moreover, the “time to formation of three-dimensional spherical cellular condensates (cell spheroids)” value in assay [3] was 24 to 48 h. In addition, the “increase in collagen synthesis on TGF-β1-dependent spheroid formation” value in assay [4] is reported as “two to three fold increase”. For the same compound, in assay [5] (TGF-b 25 pM, IGF 15 pM, each alone), the “capacity to drive murine osteogenesis (individually)” value is recorded as “little capacity”.
With VEGF, the “increase in number of von Kossa cellular foci” value in assay [5] (VEGF 10 ng/mL) amounted to 2.5 fold. Moreover, in assay [5] (VEGF 10 ng/mL added to LTBMC), the “increase in number of collagen-positive and von Kossa-positive developmental foci per culture” value is on record as 75–80%. In addition, the “increase in number of microspicules per culture” value in assay [5] (VEGF 10 ng/mL, over the first three weeks of culture) is roughly 5 fold.
